# The source made the active and inactive calls.
# Experiments:
# [1] = reduction of Shn3 3'UTR-driven luciferase in osteoblasts – cell-based, Clone20 osteoblasts, firefly luciferase, cherry-picked, dose response (AID 624132); format: functional;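 note: firefly luciferase luminescence from reporter carrying the Shn3 3'UTR in osteoblasts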
# [2] = non-specific 3'UTR reporter inhibition in Clone20-Shn3RL – cell-based, Renilla luciferase, cherry-picked, counter-screen for Shn3 inhibitor project, dose response (AID 624133); format: functional
# [3] = target: Protein Wnt-3a (Mus musculus, UniProt P27467); test: antagonism of Wnt3a pathway luciferase reporter – Wnt-LIGHT cells, luminescence, selectivity assay for Gli-SUFU antagonist project, dose response (AID 651570); format: functional; conditions: read-out: IC50_Mean;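 note: Wnt-LIGHT reporter cells stimulated with conditioned medium from Wnt3a-producing cells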
# Protein Wnt-3a, sequence (P27467 whole entry): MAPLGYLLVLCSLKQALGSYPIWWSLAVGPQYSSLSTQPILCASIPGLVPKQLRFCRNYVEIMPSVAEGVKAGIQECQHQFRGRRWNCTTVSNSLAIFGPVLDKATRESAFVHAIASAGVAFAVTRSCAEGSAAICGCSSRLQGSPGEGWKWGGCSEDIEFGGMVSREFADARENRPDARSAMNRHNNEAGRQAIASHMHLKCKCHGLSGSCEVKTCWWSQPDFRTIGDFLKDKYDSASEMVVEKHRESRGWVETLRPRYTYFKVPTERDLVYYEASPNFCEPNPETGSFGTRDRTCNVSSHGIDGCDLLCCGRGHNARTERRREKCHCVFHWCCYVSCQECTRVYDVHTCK
# [4] = target: T1, Corticotropin-releasing factor receptor 2/Corticotropin-releasing factor-binding protein (Homo sapiens, UniProt P24387+Q13324); test: Dose Response confirmation of uHTS hits for small molecule antagonists of the CRF-binding protein and CRF-R2 receptor complex.; format: functional; conditions: read-out: IC50_Mean
# T1 sequence (Q13324 whole entry): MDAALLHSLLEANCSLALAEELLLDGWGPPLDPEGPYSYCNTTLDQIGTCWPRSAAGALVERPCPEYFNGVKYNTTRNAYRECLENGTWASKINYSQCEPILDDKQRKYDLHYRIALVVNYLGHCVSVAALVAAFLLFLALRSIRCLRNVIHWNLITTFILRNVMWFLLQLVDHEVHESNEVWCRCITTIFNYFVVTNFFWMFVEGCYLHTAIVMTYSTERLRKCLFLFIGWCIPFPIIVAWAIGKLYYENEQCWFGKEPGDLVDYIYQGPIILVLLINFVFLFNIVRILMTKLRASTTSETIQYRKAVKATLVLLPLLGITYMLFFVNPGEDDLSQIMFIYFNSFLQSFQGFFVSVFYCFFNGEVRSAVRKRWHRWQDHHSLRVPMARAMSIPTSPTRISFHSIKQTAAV
# T1 sequence (P24387 whole entry): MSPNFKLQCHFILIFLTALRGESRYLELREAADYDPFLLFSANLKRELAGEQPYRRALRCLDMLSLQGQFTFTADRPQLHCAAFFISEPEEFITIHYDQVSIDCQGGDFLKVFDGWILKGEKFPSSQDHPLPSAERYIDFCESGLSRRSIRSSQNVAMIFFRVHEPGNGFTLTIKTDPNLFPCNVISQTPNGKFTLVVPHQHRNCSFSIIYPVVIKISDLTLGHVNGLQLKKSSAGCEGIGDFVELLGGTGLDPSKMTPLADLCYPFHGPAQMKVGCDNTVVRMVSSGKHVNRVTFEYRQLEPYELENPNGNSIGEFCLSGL
# [5] = target: T1, Corticotropin-releasing factor receptor 2/Corticotropin-releasing factor-binding protein; test: activators of CRF receptor 2 with binding protein – uHTS hits, confirmation (AID 602473); format: functional; conditions: read-out: EC50_Mean
# [6] = blockers of CRF-binding protein–CRF-R2 complex – cell-based, uHTS hits, 384-well, dose response (AID 651639); format: functional, Homo sapiens; conditions: read-out: IC50_Mean
# [7] = target: T2, Replicative DNA helicase DnaB (Mycobacterium tuberculosis, UniProt P9WMR3); test: DnaB intein splicing inhibitors, dose response, biochemical, cell-free fluorescence (AID 449749); format: functional
# T2 sequence (P9WMR3 whole entry): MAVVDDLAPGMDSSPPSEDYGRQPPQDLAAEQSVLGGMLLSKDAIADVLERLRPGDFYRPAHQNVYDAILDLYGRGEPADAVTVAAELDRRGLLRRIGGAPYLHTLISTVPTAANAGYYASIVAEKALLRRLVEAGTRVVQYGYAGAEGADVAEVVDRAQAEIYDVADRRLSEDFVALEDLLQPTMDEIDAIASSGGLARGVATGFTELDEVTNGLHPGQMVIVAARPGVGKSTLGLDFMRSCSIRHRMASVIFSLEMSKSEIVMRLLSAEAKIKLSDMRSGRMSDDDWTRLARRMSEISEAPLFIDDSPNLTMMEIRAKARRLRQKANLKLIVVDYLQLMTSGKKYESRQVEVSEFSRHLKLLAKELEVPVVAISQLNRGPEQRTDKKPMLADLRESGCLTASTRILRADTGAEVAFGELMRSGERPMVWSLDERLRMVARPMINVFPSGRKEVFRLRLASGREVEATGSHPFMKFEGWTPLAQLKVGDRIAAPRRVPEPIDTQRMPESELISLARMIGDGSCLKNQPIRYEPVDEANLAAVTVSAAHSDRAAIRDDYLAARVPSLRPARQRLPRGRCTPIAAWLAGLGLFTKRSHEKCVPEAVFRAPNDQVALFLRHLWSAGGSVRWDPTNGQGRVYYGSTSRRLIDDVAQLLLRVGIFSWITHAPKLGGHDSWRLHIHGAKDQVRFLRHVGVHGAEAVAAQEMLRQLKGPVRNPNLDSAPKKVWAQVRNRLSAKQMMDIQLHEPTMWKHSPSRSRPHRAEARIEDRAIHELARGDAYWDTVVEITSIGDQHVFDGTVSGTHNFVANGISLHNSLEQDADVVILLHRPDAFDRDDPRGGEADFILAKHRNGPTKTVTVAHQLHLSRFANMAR
# [8] = target: T3, Protein RecA (Mycobacterium tuberculosis, UniProt P9WHJ3); test: Fluorescence Cell-Free Homogeneous Dose Retest to Identify Inhibitors of RecA-Intein Splicing Activity. [Related pubchem assays (depositor defined):AID2097, AID2223, AID489010, AID492950]; format: functional
# T3 sequence (P9WHJ3 whole entry): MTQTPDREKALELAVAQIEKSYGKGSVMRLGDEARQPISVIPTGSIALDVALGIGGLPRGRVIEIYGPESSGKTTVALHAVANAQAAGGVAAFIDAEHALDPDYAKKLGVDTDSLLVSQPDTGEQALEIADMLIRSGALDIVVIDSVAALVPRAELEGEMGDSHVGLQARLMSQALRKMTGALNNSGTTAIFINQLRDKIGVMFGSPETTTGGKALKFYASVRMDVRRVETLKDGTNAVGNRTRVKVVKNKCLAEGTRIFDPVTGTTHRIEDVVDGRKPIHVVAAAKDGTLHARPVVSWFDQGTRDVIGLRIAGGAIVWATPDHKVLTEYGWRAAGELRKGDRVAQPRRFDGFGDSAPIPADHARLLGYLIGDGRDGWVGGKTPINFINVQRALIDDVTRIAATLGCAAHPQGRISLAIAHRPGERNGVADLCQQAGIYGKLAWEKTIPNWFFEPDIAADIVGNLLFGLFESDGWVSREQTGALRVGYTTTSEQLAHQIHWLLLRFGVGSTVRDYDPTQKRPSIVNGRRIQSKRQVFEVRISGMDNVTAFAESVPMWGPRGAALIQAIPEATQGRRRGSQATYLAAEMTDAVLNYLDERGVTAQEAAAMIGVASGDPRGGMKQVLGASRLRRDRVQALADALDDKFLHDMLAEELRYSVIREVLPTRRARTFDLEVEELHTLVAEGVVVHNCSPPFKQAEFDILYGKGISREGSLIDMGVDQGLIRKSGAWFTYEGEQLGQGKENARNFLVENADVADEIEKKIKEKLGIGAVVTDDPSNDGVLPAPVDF
# [9] = A Cell Based Secondary Assay to Explore Cytotoxicity in THP-1 Cells of Compounds that Modulate Mycobacterium tuberculosis in Media Containing Glycerol versus Media without Glycerol (2).; format: functional
# [10] = Vero cell cytotoxicity, cytotoxicity control for M. tuberculosis inhibitor project, purified and synthesized samples, set 3 (AID 504684); format: functional
# [11] = target: T4, Probable nicotinate-nucleotide adenylyltransferase (Staphylococcus aureus (strain N315), UniProt P65502); format: functional, Staphylococcus aureus subsp. aureus N315;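 for IC50 Mean: confirmatory dose-response retesting of NadD inhibitor hits first found in an ultra-high-throughput screen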
# T4 sequence (P65502 whole entry): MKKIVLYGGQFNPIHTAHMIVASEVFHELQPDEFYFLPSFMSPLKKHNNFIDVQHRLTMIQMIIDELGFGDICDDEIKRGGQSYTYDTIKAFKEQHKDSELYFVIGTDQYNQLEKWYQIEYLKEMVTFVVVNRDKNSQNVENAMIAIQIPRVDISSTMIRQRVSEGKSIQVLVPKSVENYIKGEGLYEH
# [12] = target: T4, Probable nicotinate-nucleotide adenylyltransferase; format: functional, Staphylococcus aureus subsp. aureus N315; conditions: read-out: IC50_Mean
# [13] = system: CHO-K1; test: (§1) Counterscreen for antagonists of the orexin 1 receptor (OX1R; HCRTR1): Homogeneous time resolved fluorescence (HTRF)-based cell-based dose response assay to identify antagonists of the parental CHO-K1 cell line. [Related pubchem assays (depositor defined):AID434989, AID435008, AID463079, AID485270, AID492963, AID492964, AID492965, AID493232, AID504699, AID504701]; format: functional; conditions: Cricetulus griseus
# [14] = as §1, with “Fluorescence-based” for “Homogeneous time resolved fluorescence (HTRF)-based”, “cell-based high throughput” for “cell-based”, “CHO” for “CHO-K1”; format: functional
# [15] = target: T5, Orexin/Hypocretin receptor type 1 (Homo sapiens, UniProt O43613); test: Homogeneous Time Resolved Fluorescence (HTRF)-based cell-based high throughput dose response assay for antagonists of the orexin 1 receptor (OX1R; HCRTR1). [Related pubchem assays (depositor defined):AID434989, AID435008, AID463079, AID485270, AID492963, AID492964, AID492965, AID493232, AID504717, AID504718]; format: functional
# T5 sequence (O43613 whole entry): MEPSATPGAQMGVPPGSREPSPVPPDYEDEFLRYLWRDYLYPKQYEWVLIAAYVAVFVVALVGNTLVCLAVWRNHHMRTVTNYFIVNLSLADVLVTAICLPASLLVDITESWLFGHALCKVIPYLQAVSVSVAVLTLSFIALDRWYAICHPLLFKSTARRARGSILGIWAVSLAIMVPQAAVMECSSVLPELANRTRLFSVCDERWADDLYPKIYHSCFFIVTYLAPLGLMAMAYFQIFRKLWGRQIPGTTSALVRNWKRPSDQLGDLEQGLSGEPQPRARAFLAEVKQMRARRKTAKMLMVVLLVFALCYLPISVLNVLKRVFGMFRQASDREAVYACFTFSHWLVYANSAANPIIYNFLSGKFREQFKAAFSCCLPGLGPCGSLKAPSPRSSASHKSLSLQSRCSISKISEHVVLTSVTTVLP
# [16] = target: T5, Orexin/Hypocretin receptor type 1; test: Fluorescence-based cell-based high throughput dose response assay for antagonists of the orexin 1 receptor (OX1R; HCRTR1). [Related pubchem assays (depositor defined):AID434989, AID435008, AID463079, AID485270, AID492963, AID492964, AID492965, AID493232, AID504717, AID504718]; format: functional
# [17] = target: T6, Orexin receptor type 2 (Homo sapiens, UniProt O43614); test: Counterscreen assay for antagonists of the orexin 1 receptor (OX1R; HCRTR1): Fluorescence-based cell-based dose response assay for antagonists of the orexin 2 receptor (OX2R; HCRTR2), run by assay provider.; format: functional
# T6 sequence (O43614 whole entry): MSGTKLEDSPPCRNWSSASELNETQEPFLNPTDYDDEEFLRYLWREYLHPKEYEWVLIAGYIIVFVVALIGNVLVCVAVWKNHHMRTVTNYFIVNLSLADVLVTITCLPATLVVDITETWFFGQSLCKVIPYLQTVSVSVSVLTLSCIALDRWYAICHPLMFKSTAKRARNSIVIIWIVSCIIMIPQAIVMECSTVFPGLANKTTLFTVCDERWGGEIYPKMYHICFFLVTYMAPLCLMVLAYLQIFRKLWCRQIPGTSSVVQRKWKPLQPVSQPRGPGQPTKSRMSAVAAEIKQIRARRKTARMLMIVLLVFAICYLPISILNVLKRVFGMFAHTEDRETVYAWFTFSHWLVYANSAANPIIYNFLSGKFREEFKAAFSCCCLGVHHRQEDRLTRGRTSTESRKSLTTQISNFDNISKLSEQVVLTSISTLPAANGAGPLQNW
# [18] = target: T6, Orexin receptor type 2; test: Counterscreen assay for antagonists of the orexin 1 receptor (OX1R; HCRTR1): Homogeneous Time Resolved Fluorescence (HTRF)-based cell-based dose response assay for antagonists of the orexin 2 receptor (OX2R; HCRTR2), run by assay provider.; format: functional
# [19] = Luminescence-based cell-based high throughput dose response assay to identify activators of the DAF-12 from the parasite S. stercoralis (ssDAF-12).; format: functional
# [20] = target: T7, Oxysterols receptor LXR-beta (Homo sapiens, UniProt P55055); test: LXR agonists, Gal4 luciferase reporter, dose response, counter-screen for ssDAF-12 agonist project, cell-based, luminescence, HEK293, S. stercoralis campaign (AID 720737); format: functional; conditions: read-out: IC50 (the source's name)
# T7 sequence (P55055 whole entry): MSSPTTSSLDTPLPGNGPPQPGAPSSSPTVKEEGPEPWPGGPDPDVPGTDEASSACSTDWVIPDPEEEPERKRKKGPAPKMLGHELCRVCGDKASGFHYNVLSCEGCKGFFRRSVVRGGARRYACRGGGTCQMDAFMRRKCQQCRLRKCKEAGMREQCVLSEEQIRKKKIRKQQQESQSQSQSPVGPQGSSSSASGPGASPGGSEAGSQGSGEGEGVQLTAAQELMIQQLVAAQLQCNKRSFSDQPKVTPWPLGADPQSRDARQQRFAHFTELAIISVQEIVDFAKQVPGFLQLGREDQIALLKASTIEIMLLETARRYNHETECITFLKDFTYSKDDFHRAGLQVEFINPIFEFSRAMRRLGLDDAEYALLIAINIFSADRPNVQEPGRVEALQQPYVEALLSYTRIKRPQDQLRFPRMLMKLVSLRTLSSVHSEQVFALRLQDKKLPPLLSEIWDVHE
smiles,measurement,setting,value
C=CCOc1nc2c(c(=O)n(C)c(=O)n2C)n1Cc1ccc(Cl)cc1,AC50,[1],1.03 µM (active)
same,AC50,[2],2.02 µM (active)
same,IC50,[3],1.88 µM (active)
COC(=O)CSC1=C(C#N)C(c2ccc(Cl)cc2)C(C(=O)OC)C(=O)N1 (centres undefined),IC50,[4],24 µM (active)
same,EC50,[5],> 53 µM (inactive)
same,IC50,[6],13.4 µM (active)
O=C(NC(=S)Nc1c(Cl)ccc2nsnc12)c1ccccc1F,IC50,[4],2.88 µM (active)
same,EC50,[5],> 53 µM (inactive)
same,IC50,[6],> 20 µM (inactive)
O=C1C(Br)=Cc2cccc3cccc1c23,AC50,[7],> 380 µM (inactive)
same,EC50,[8],0.581 µM (active)
same,CC50,[9],> 100 µM (active)
same,CC50,[10],74.6 µM (active)
NC(CSC1(c2ccc(Cl)cc2)c2ccccc2-c2ccccc21)C(=O)O (centres undefined),IC50,[11],11.7 µM (active)
same,IC50,[12],34.2 µM (active)
Cc1ccc(NC(=O)c2ccc3ccccc3n2)nc1,IC50,[13],> 66.2 µM (inactive)
same,IC50,[14],> 49.7 µM (inactive)
same,IC50,[15],1.64 µM (active)
same,IC50,[16],10.4 µM (inactive)
same,IC50,[17],> 88.8 µM (inactive)
same,IC50,[18],2.35 µM (active)
same,IC50,[19],> 67.5 µM (inactive)
same,EC50,[20],> 67.5 µM (inactive)
COc1cc(OC)c(-c2nc3ccccc3s2)cc1OC,IC50,[13],> 66.2 µM (inactive)
same,IC50,[14],> 49.7 µM (inactive)
same,IC50,[15],0.46 µM (active)
same,IC50,[16],5.47 µM (active)
same,IC50,[17],> 88.8 µM (inactive)
same,IC50,[18],> 50 µM (inactive)

# Source: ChEMBL document CHEMBL1201862, “PubChem BioAssay data set” (2004)
